Non-standard residues stand in square brackets, D forms with d. Residues, ends and D or L forms follow the SMILES beside them. pGlu = O=C1CC[C@@H](C(=O)O)N1
Experiments:
Format in all cases: cell-based
[1] = biological target: T1, apTKRPR-A (Aplysia californica, UniProt A0AAU7SSZ1); assay: Cell surface expression by ELISA after ligand exposure, FLAG-apTKRPR-A; conditions: 10 µM, different durations, compared with 0 min, n = 4
T1 sequence (A0AAU7SSZ1 1-398): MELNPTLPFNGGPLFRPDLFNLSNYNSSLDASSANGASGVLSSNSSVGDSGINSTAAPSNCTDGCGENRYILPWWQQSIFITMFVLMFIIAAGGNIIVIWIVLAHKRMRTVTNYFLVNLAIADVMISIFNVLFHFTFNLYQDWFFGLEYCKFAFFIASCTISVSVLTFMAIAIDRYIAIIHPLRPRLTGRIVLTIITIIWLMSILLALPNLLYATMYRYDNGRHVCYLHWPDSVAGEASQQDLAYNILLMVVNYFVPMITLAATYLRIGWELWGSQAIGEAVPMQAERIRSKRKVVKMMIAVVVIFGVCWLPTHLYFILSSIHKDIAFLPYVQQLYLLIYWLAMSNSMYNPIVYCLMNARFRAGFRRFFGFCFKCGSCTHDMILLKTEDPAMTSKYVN
Procedure: (§1) Cell surface expression determination of apTKRPRs and mutant receptors, all with FLAG tags, was performed using a procedure modified from previous work ([64], [122], [123], [124]). Specifically, CHO-K1 cells were cultured in F-12K medium (Gibco, 21127-022) with 10% FBS (Genial, G11-70500) at 37 °C in a humidified incubator containing 5% CO2. When the cells were grown to 70 to 90% confluence, transfection experiments were performed (see “Cell culture and transfection” section). After 24 h, transfected cells were plated in 96-well white clear-bottom cell culture plates (Corning, 3610) at a density of 20,000 cells in 100 μl per well and incubated overnight. The following day, culture media was aspirated and cells were washed twice with 200 μl of 1× PBS (Procell, PB180327). Then, 100 μl of 1× PBS containing 5% (w/v) BSA was added to each well and incubated at room temperature. After 30 min, 100 μl of 1:10,000 anti-FLAG M2-horseradish peroxidase conjugate (Sigma-Aldrich, Cat A8592) was added to each well and incubated for 30 min at 37 °C. Cells were washed twice with 200 μl of 1× PBS and then incubated with 200 μl of TMB Chromogen Solution (Sangon Biotech, E661007) for 30 min at 37 °C in the dark. Finally, 50 μl of ELISA Stopping Solution (Sangon Biotech, E661006) was added to each well to stop the reaction. The absorbance at 450 nm was measured using a Tecan Spark microplate reader. […]

[2] = biological target: apTKRPR-B T391 (Aplysia californica, UniProt A0AAU7STS1, DEL392-447); assay: Cell surface expression by ELISA after ligand exposure, truncated apTKRPR-B T391; conditions: 10 µM, 60 min, n = 5
Procedure: as §1

[3] = biological target: T1, apTKRPR-A; assay: Receptor desensitization assay, protocol 1 (prolonged agonist exposure), apTKRPR-A; conditions: 10 μM, 2, 5, 10, 15, 30 and 60 min at 37 °C; fold increase over basal; n = 3
Procedure: Therefore, we adopted two protocols to study the desensitization of apTKRPRs. The protocols were performed using a procedure modified from previous work ([87], [88], [89]).
Protocol 1 ([87], [88]): Under continuous (prolonged) stimulation with an agonist, we examined agonist-induced desensitization by quantifying the rate of IP1 accumulation. Specifically, CHO-K1 cells transiently expressing pcDNA3.1-apTKRPRs were incubated in the absence or presence of 10 μM (saturating concentration) apTKRP-2b for the different duration (2, 5, 10, 15, 30, and 60 min) at 37 °C, and intracellular concentrations of IP1 accumulation were measured. Data are presented as fold increase over basal IP1 concentration (Fig. S10).

[4] = biological target: T2, apTKRPR-B (Aplysia californica, UniProt A0AAU7STS1); assay: IP1 accumulation assay, CHO-K1 cells transiently expressing apTKRPR-B
T2 sequence (A0AAU7STS1 1-447): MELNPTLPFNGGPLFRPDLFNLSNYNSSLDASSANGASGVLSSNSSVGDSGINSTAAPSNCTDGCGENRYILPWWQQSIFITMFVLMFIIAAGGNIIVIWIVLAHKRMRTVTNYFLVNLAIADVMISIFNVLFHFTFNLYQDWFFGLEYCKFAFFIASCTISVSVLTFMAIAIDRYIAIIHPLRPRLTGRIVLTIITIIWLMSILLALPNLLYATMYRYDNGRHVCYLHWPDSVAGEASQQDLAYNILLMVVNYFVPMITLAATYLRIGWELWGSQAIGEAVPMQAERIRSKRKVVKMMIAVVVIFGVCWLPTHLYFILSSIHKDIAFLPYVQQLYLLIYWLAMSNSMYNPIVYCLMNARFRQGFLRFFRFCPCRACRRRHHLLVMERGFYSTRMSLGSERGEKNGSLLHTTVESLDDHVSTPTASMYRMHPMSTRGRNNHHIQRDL
Procedure: To express putative Aplysia receptors transiently in CHO-K1 cells, the cDNAs were subcloned into the pcDNA3.1(+) or pcDNA3.1(+)-FLAG (for ELISA experiments only, see “Cell surface expression analysis by ELISA” section) expression vector. On the day before transfection, the CHO-K1 cells were passaged into 60 mm diameter tissue culture–treated dishes, and the transfection experiments were performed when the cells were grown to 70 to 90% confluence. CHO-K1 cells were transfected with the cDNA plasmid constructs using Turbofect Transfection reagent (Thermo Fisher Scientific, R0531), following the manufacturer’s instructions. […] The DNA/TurboFect mixture dropwise was then added to the dish, and the cells were incubated at 37 °C in a humidified incubator containing 5% CO2 overnight.
On the third day, the activation of the putative receptors was detected by monitoring intracellular IP1 concentration using an IP-One Gq kit (Cisbio, 62IPAPEB) in Tecan Spark. Except for using 0.5x reagent, all other procedures were performed following the manufacturer’s instructions. IP1 accumulation assay measures the accumulation of IP1, which is hydrolyzed from the second messenger, and inositol triphosphate. Inositol triphosphate is generated by the Gαq pathway when a GPCR is activated by an appropriate ligand.

CC(C)C[C@H](NC(=O)[C@H](Cc1c[nH]cn1)NC(=O)[C@@H]1CCCN1C(=O)[C@@H]1CCC(=O)N1)C(=O)NCC(=O)N[C@@H](Cc1ccccc1)C(=O)N[C@@H](Cc1c[nH]cn1)C(=O)NCC(=O)N[C@@H](CO)C(=O)N[C@@H](CCCNC(=N)N)C(N)=O [apTKRP-2b] ([pGlu]PHLGFHGSR-NH2)
cell surface receptor expression of apTKRPR-A after agonist exposure [1]: significant loss of receptor expression
cell surface receptor expression of T391 after agonist exposure [2]: did not change significantly
time course of IP1 accumulation, apTKRPR-A (protocol 1) [3]: initially increased and then reached a plateau
EC50 [4]: 5.37 nM
IP1 response of apTKRPR-B in screening ([4]; 10^-5 M compared with 10^-10 M (control), n = 3, no Gαq cotransfection): responded

From PMC11365428 (The Journal of Biological Chemistry, 2024)
